Experimental data reported in US20090054435A1, “Phenoxyalkanoic Acid Compound” (priority 2005, published 2009).

Assays:
KKAy mice = assay: Blood glucose and blood lipid (triglyceride) lowering action in mice; type: in vivo; settings: 6 days; for hypoglycemic action (%): decrease rate of blood glucose vs non-administration group (100%); for hypolipidemic action (%): decrease rate of blood triglyceride vs non-administration group (100%)
Excerpt: The test compound was mixed with a powder diet (CE-2, CLEA JAPAN, INC.) at a proportion of 0.01% (0.03% for the compound of Example 1) and freely given to KKAy mice (9 to 12-week-old, 5 mice per group) which are obese non-insulin-dependent diabetes (type-2 diabetes) models, for 6 days. During this period, water was freely given to the mice. The blood was drawn from the orbital venous plexus. Glucose and triglyceride in the plasma separated from the blood were quantitated using L Type Wako Glu2 (Wako Pure Chemical Industries, Ltd.) and L Type Wako TG·H (Wako Pure Chemical Industries, Ltd.), respectively, according to an enzyme method.

PPAR γ-RXRα heterodimer = molecular target: T1, PPAR γ-RXRα heterodimer (Homo sapiens, UniProt P37231); assay: PPAR γ-RXRα heterodimer ligand activity (luciferase reporter in PPAR γ:RXRα:4ERPP/CHO-K1 cells); type: cell-based; settings: for EC50: compound concentration showing 50% of the maximum induction rate of luciferase activity, 18-24 hr incubation; for Vmax (%): maximum luciferase induction relative to 5-{4-[2-(5-methyl-2-phenyl-1,3-oxazol-4-yl)ethoxy]benzyl}-1,3-thiazolidin-2,4-dione (PPARγ full agonist) as 100%
T1 construct: expressed in transfected cells; host or cells: CHO-K1 (PPAR γ:RXRα:4ERPP/CHO-K1)
T1 sequence (P37231 29-505 limits assumed): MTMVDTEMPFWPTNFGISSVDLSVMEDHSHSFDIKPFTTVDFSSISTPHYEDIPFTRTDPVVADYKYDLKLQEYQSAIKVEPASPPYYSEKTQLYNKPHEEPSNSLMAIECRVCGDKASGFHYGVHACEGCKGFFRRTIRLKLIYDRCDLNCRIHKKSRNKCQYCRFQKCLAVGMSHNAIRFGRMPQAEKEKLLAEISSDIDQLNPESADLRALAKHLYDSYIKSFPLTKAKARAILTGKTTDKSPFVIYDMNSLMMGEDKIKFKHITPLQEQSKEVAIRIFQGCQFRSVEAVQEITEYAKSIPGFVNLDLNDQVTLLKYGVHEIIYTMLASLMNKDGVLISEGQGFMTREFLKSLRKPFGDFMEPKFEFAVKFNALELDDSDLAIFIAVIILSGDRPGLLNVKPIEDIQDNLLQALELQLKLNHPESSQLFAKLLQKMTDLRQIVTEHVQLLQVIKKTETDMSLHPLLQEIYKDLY
T1 sequence (P19793 1-462 partner): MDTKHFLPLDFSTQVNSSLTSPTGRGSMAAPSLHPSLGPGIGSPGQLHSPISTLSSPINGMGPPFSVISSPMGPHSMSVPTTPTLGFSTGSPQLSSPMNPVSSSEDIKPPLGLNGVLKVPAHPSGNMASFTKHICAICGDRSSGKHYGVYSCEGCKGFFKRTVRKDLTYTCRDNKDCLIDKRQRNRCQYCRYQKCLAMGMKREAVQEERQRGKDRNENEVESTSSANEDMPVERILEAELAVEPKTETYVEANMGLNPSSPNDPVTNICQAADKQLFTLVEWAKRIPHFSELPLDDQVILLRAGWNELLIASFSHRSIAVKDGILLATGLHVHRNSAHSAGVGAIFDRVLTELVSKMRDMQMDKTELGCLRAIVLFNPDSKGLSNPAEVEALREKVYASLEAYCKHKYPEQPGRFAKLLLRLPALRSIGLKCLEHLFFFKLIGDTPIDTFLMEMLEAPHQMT
Protocol: The PPAR γ:RXRα:4ERPP/CHO-K1 cells described in WO03/099793 were cultured in a HamF12 medium [manufactured by Life Technologies, Inc., US] containing 10% calf fetal serum [manufactured by Life Technologies, Inc., US], sown in a 96-well white plate [manufactured by Corning Coster Corporation, US] at 2×10^4 cells/well, and incubated overnight in a carbon dioxide gas incubator at 37° C.
Then, the medium was removed from the 96 well white plate, 80 μl of HamF12 medium containing 0.1% fatty acid-free bovine serum albumin (BSA) and a test compound (20 μl) were added, and the cells were incubated for 18-24 hr in a carbon dioxide gas incubator at 37° C. The medium was removed, 40 μl of PicaGene7.5 (manufactured by Wako Pure Chemical Industries, Ltd.) 2-fold diluted with HBSS (HANKS' BALANCED SALT SOLUTION) [manufactured by BIO WHITTAKER, US] was added. After stirring, the luciferase activity was determined using the 1420 ARVO Multilabel Counter [manufactured by PerkinElmer, US].
The induction rate was calculated from the luciferase activity of each test compound based on the luciferase activity of the test compound non-administration group as 1. The test compound concentration and the induction rate were analyzed by PRISM [manufactured by GraphPad Software, Inc., US] to calculate EC50 value (compound concentration showing 50% of the maximum value of induction rate) of the test compound.
In addition, the luciferase activity induction magnification maximum value of each test compound relative to that of the 5-{4-[2-(5-methyl-2-phenyl-1,3-oxazol-4-yl)ethoxy]benzyl}-1,3-thiazolidin-2,4-dione (PPARγ full agonist) administration group as 100% was defined as Vmax and calculated.

[1] = 0.03% in powder diet (compound of Example 1)

SMILES | hypoglycemic action (%) (KKAy mice; [1]) | hypolipidemic action (%) (KKAy mice; [1]) | EC50 (PPAR γ-RXRα heterodimer) [nM] | Vmax (%) (PPAR γ-RXRα heterodimer) | melting point [°C] | hypoglycemic action (%) (KKAy mice; 0.01% in powder diet) | hypolipidemic action (%) (KKAy mice; 0.01% in powder diet)
COc1ccc(C(=O)c2ccc(OCc3nc(-c4ccccc4)oc3C)cc2)c(OCC(=O)O)c1 [Example 1, (5-methoxy-2-{4-[(5-methyl-2-phenyl-1,3-oxazol-4-yl)methoxy]benzoyl}phenoxy)acetic acid] | 54 | 44 | 100 | 57 | 146 to 147 | – | –
COc1ccc(C(=O)c2ccc(OCc3nc(-c4ccccc4)oc3C)cc2)c(OC(C)(C)C(=O)O)c1 [Example 14, 2-(5-methoxy-2-{4-[(5-methyl-2-phenyl-1,3-oxazol-4-yl)methoxy]benzoyl}phenoxy)-2-methylpropanoic acid] | – | – | 15 | 61 | 175 to 177 | 38 | 29
COc1ccc(C(=O)c2ccc(OCc3nc(-c4ccccc4)oc3C)nc2)c(OC(C)C(=O)O)c1 (stereo not drawn) [Example 21, 2-[5-methoxy-2-({6-[(5-methyl-2-phenyl-1,3-oxazol-4-yl)methoxy]pyridin-3-yl}carbonyl)phenoxy]propanoic acid] | – | – | 8.1 | 60 | 162 to 163 | 32 | 14
Cc1oc(-c2ccccc2)nc1COc1ccc(C(=O)c2ccccc2OC(C)C(=O)O)cc1 (stereo not drawn) [Example 22, 2-(2-{4-[(5-methyl-2-phenyl-1,3-oxazol-4-yl)methoxy]benzoyl}phenoxy)propanoic acid] | – | – | 33 | 70 | 186 to 187 | 41 | 48
COc1cc(C)c(C(=O)c2ccc(OCc3nc(-c4ccccc4)oc3C)cc2)c(O[C@H](C)C(=O)O)c1 [Example 42, (2R)-2-(5-methoxy-3-methyl-2-{4-[(5-methyl-2-phenyl-1,3-oxazol-4-yl)methoxy]benzoyl}phenoxy)propanoic acid] | – | – | 1 | 73 | 122 to 123 | – | –
COc1ccc(C(=O)c2ccc(OCc3nc(-c4ccccc4)oc3C)cc2)c(O[C@H](C)C(=O)O)c1 [Example 53, (2R)-2-(5-methoxy-2-{4-[(5-methyl-2-phenyl-1,3-oxazol-4-yl)methoxy]benzoyl}phenoxy)propanoic acid] | – | – | 5.1 | 60 | 169 to 170 | 46 | 12
COc1ccc(C(=O)c2ccc(OCCc3nc(-c4ccccc4)oc3C)nc2)c(O[C@H](C)C(=O)O)c1 [Example 55, (2R)-2-[5-methoxy-2-({6-[2-(5-methyl-2-phenyl-1,3-oxazol-4-yl)ethoxy]pyridin-3-yl}carbonyl)phenoxy]propanoic acid] | – | – | 15 | 44 | – | – | –
